Earlier results, collected in patent US6635271B1, “Method for increasing the concentration of conjugated linoleic acid in milk and/or tissue fat of a ruminant” (Valio Oy, priority 1997, dated 2003).

Conditions: vaccenic acid fed to mice (Santora et al. 1998)

Structure (SMILES): CCCCCC/C=C\CCCCCCCCCC(=O)O [vaccenic acid, trans-11 isomer of octadecenoic acid]
- tissue fat CLA concentration: tripled
